Experimental data as given in ChEMBL document CHEMBL3785084, “Rational modification of the lead molecule: Enhancement in the anticancer and dihydrofolate reductase inhibitory activity” (Bioorg Med Chem Lett, 2016).

Key:
Assay type in all cases: functional
[1] = system: CCRF-CEM; assay: Cytotoxicity against human CCRF-CEM cells assessed as cell growth at 10^-5 M after 48 hrs by sulforhodamine B assay; details: read-out: Activity
[2] = Cytotoxicity against human HL-60(TB) cells assessed as cell growth at 10^-5 M after 48 hrs by sulforhodamine B assay; details: HL-60, 48 h, read-out: Activity
[3] = system: K562; assay: Cytotoxicity against human K562 cells assessed as cell growth at 10^-5 M after 48 hrs by sulforhodamine B assay; details: K562, 48 h, read-out: Activity
[4] = Cytotoxicity against human MOLT4 cells assessed as cell growth at 10^-5 M after 48 hrs by sulforhodamine B assay; details: MOLT-4, 48 h, read-out: Activity
[5] = Cytotoxicity against human RPMI8226 cells assessed as cell growth at 10^-5 M after 48 hrs by sulforhodamine B assay; details: RPMI-8226, 48 h, read-out: Activity
[6] = system: NCI-H460; assay: Cytotoxicity against human NCI-H460 cells assessed as cell growth at 10^-5 M after 48 hrs by sulforhodamine B assay; details: NCI-H460, 48 h, read-out: Activity
[7] = system: NCI-H522; assay: Cytotoxicity against human NCI-H522 cells assessed as cell growth at 10^-5 M after 48 hrs by sulforhodamine B assay; details: NCI-H522, 48 h, read-out: Activity
[8] = Cytotoxicity against human HCC2998 cells assessed as cell growth at 10^-5 M after 48 hrs by sulforhodamine B assay; details: HCC 2998, 48 h, read-out: Activity
[9] = Cytotoxicity against human HCT15 cells assessed as cell growth at 10^-5 M after 48 hrs by sulforhodamine B assay; details: HCT-15, 48 h, read-out: Activity
[10] = Cytotoxicity against human SNB19 cells assessed as cell growth at 10^-5 M after 48 hrs by sulforhodamine B assay; details: SNB-19, 48 h, read-out: Activity
[11] = system: SK-MEL-5; assay: Cytotoxicity against human SK-MEL-5 cells assessed as cell growth at 10^-5 M after 48 hrs by sulforhodamine B assay; details: SK-MEL-5, 48 h, read-out: Activity
[12] = Cytotoxicity against human UACC257 cells assessed as cell growth at 10^-5 M after 48 hrs by sulforhodamine B assay; details: UACC-257, 48 h, read-out: Activity
[13] = Cytotoxicity against human UACC62 cells assessed as cell growth at 10^-5 M after 48 hrs by sulforhodamine B assay; details: UACC-62, 48 h, read-out: Activity
[14] = Cytotoxicity against human IGROV1 cells assessed as cell growth at 10^-5 M after 48 hrs by sulforhodamine B assay; details: IGROV-1, 48 h, read-out: Activity
[15] = Cytotoxicity against human OVCAR4 cells assessed as cell growth at 10^-5 M after 48 hrs by sulforhodamine B assay; details: OVCAR-4, 48 h, read-out: Activity
[16] = Cytotoxicity against human OVCAR5 cells assessed as cell growth at 10^-5 M after 48 hrs by sulforhodamine B assay; details: OVCAR-5, 48 h, read-out: Activity
[17] = system: A498; assay: Cytotoxicity against human A498 cells assessed as cell growth at 10^-5 M after 48 hrs by sulforhodamine B assay; details: A498, 48 h, read-out: Activity
[18] = system: ACHN; assay: Cytotoxicity against human ACHN cells assessed as cell growth at 10^-5 M after 48 hrs by sulforhodamine B assay; details: read-out: Activity
[19] = Cytotoxicity against human UO31 cells assessed as cell growth at 10^-5 M after 48 hrs by sulforhodamine B assay; details: UO-31, 48 h, read-out: Activity
[20] = Cytotoxicity against human PC3 cells assessed as cell growth at 10^-5 M after 48 hrs by sulforhodamine B assay; details: PC-3, 48 h, read-out: Activity
[21] = system: T47D; assay: Cytotoxicity against human T47D cells assessed as cell growth at 10^-5 M after 48 hrs by sulforhodamine B assay; details: read-out: Activity

Row | Compound | growth at 10 µM [1] | growth at 10 µM [2] | growth at 10 µM [3] | growth at 10 µM [4] | growth at 10 µM [5] | growth at 10 µM [6] | growth at 10 µM [7] | growth at 10 µM [8] | growth at 10 µM [9] | growth at 10 µM [10] | growth at 10 µM [11] | growth at 10 µM [12] | growth at 10 µM [13] | growth at 10 µM [14] | growth at 10 µM [15] | growth at 10 µM [16] | growth at 10 µM [17] | growth at 10 µM [18] | growth at 10 µM [19] | growth at 10 µM [20] | further results
1 | CC1=NN(c2cccc(Cl)c2)C(=O)/C1=C\c1cn(CC(O)Cn2cc(/C=C3\C(=O)N(c4cccc(Cl)c4)N=C3C)c3ccccc32)c2ccccc12 | 106% | 109% | 101% | 104% | 109% | 111% | 97.6% | 102% | 106% | 107% | 101% | 116% | 112% | 104% | 103% | 102% | 119% | 107% | 86.4% | 104% | growth at 10 µM [21]: 88%
2 | O=C1NC(=O)C(=Cc2cn(CC(O)Cn3cc(C=C4C(=O)NC(=O)NC4=O)c4ccccc43)c3ccccc23)C(=O)N1 | 105% | 107% | 107% | 110% | 98.5% | 55.1% | 97.1% | 94.6% | 103% | 103% | 101% | 110% | 106% | 97.3% | 100% | 109% | 106% | 105% | 86% | 93.7% | growth at 10 µM [21]: 91.8%
